These results are taken from patent US20070161547A1, “Modulation of survivin expression” (priority 2003, published 2007).

Oligonucleotides are written 5' to 3', each unit as a sugar letter and its base; * is a phosphorothioate linkage, no mark a phosphodiester; rarer units and linkages stand in square brackets, end groups in braces. Plain capitals give the bases only. e = 2'-O-(2-methoxyethyl) (MOE); m = 2'-O-methyl; r = 2'-OH (RNA); {P} = phosphate

The first data set concerns human survivin mRNA. The experiment in a line: Inhibition of human survivin mRNA by single-stranded asRNA in HUVEC, real-time quantitative PCR. The class given is cell-based. Also on record: concentration or dose not given beside the values. The conditions noted are these: Table 7. As to the method: HUVEC were obtained from ATCC and routinely cultured in EBM (Clonetics Corp, Walkersille, Md.) supplemented with SingleQuots supplements. Cells were routinely passaged by trypsinizaiton and dilution when they reached 90% confluence were maintained for up to 15 passages. For cells grown in 96-well plates (10,000 cells/well), wells were washed once with 200 μL OPTI-MEM-1™ reduced-serum medium (Gibco BRL) and then treated with 130 μL of OPTI-MEM-1™ containing 12 μg/mL LIPOFECTIN™ (Gibco BRL) and the desired double-stranded compounds at a final concentration of 25 nM. After 5 hours of treatment, the medium was replaced with fresh medium. Cells were harvested 16 hours after dsRNA treatment, at which time RNA was isolated and target reduction measured by RT-PCR.
A series of single-stranded olgometric compounds (asRNA) was evaluated for their ability to inhibit human survivin in human umbilical vein endothelial cells (HUVEC). Culture methods used for HUVEC are found, for example, at www.atcc.org.
Data were obtained by real-time quantitative PCR as described in other examples herein.
On to “347439 (antisense {P}-rA*rG*rA*rA*rU*rG*rG*rC*rU*rU*rU*rG*rU*rG*rC*rU*rU*rA*rG*rU) [compound 347439]”, for which the “% INHIB, inhibition of human survivin mRNA levels by asRNA oligomeric compounds” value (“% INHIB, inhibition” below) came to 62%. With “347450 (antisense {P}-rA*rU*rC*rC*rA*rC*rC*rC*rU*rG*rC*rA*rG*rC*rU*rC*rU*rA*rU*rG) [compound 347450]”, the “% INHIB, inhibition” value is reported as 55%. With “347428 (antisense {P}-rA*rG*rA*rA*rG*rC*rA*rC*rC*rU*rC*rU*rG*rG*rU*rG*rC*rC*rA*rC) [compound 347428]”, the “% INHIB, inhibition” value is reported as 60%. The same measure, in the same setting: the figure for “347441 (antisense {P}-rA*rA*rG*rG*rA*rG*rU*rA*rU*rC*rU*rG*rC*rC*rA*rG*rA*rC*rG*rC) [compound 347441]” is 66%. Same read-out and setting: next, “347423 (antisense {P}-rA*rU*rC*rC*rA*rU*rG*rG*rC*rA*rG*rC*rC*rA*rG*rC*rU*rG*rC*rU) [compound 347423]”: 55%; “347427 (antisense {P}-rA*rG*rC*rA*rC*rA*rG*rU*rU*rG*rA*rA*rA*rC*rA*rU*rC*rU*rA*rA) [compound 347427]”: 54%; “347424 (antisense {P}-rA*rA*rC*rC*rC*rU*rG*rG*rA*rA*rG*rU*rG*rG*rU*rG*rC*rA*rG*rC) [compound 347424]”: 69%. The same measure, in the same setting: the figure for “347436 (antisense {P}-rA*rA*rC*rA*rA*rA*rA*rU*rA*rA*rG*rA*rA*rA*rG*rC*rC*rA*rU*rG) [compound 347436]” is 51%; for “347444 (antisense {P}-rA*rA*rA*rG*rG*rA*rU*rU*rU*rA*rG*rG*rC*rC*rA*rC*rU*rG*rC*rC) [compound 347444]” it is 60%.

For “347449 (antisense {P}-rG*rG*rC*rG*rA*rA*rU*rC*rA*rA*rA*rU*rC*rC*rA*rU*rC*rA*rU*rC) [compound 347449]”, the “% INHIB, inhibition” value amounted to 51%. Still for that read-out and setting: the figure for “347425 (antisense {P}-rA*rG*rG*rC*rU*rG*rG*rU*rG*rG*rC*rA*rC*rC*rA*rG*rG*rG*rA*rA) [compound 347425]” is 90%; for “347431 (antisense {P}-rA*rG*rG*rC*rU*rC*rU*rG*rC*rC*rC*rA*rC*rG*rC*rG*rA*rA*rC*rA) [compound 347431]” it is 67%. Still for that read-out and setting: the figure for “347426 (antisense {P}-rA*rU*rU*rU*rG*rA*rA*rA*rA*rU*rG*rU*rU*rG*rA*rU*rC*rU*rC*rC) [compound 347426]” is 60%.

For the substance “347442 (antisense {P}-rU*rA*rA*rU*rC*rA*rC*rA*rC*rA*rG*rC*rA*rG*rU*rG*rG*rC*rA*rA) [compound 347442]”, the “% INHIB, inhibition” value came to 66%. As for “347438 (antisense {P}-rA*rG*rU*rU*rU*rG*rU*rG*rC*rU*rA*rU*rU*rC*rU*rG*rU*rG*rA*rA) [compound 347438]”, the “% INHIB, inhibition” value is on record as 64%. Still for that read-out and setting: the figure for “347451 (antisense {P}-rG*rC*rC*rG*rA*rG*rA*rU*rG*rA*rC*rC*rU*rC*rC*rA*rG*rA*rG*rG) [compound 347451]” is 59%.

In another data set the test system is human survivin mRNA. The experiment in a line: IC50 of dsRNA for survivin mRNA, dose response by quantitative RT-PCR ("D"). Particulars: Table 16; cell line not given; read-out: IC50 (nM) mRNA, dsRNA to human survivin. It counts as cell-based. As to the method: Representative parameters that can be studied include, for example, translation of survivin mRNAs or survivin protein synthesis; effect on surrogate markers; or any other parameter that is indicative of potential dsRNA therapeutic effectiveness that can be conveniently measured in vitro.
For western blot analysis, cells are plated in 10 cm tissue culture dishes (Falcon, #3003) at a density of 7.5×10^5 cells/dish. For RT-PCR analysis, 96-well plates (Corning Incorporated, #3596) are plated with 1×10^4 cells/well. Lipofectin (GIBCO/Invitrogen) transfection reagent is used at a concentration of 3 ul/ml OPTIMEM reduced serum medium (Gibco/Invitrogen)/100 nM siRNA duplex. Lipofectin reagent is incubated with OPTIMEM medium for 30 minutes prior to the addition of siRNA. The desired amount of siRNA is added and mixed. Further 1:1 dilutions are performed in OPTIMEM. Cells are washed twice with 1× phosphate buffered saline and then treated with the siRNA/Lipofectin mixture in OPTIMEM. After a 4 hr incubation period, OPTIMEM medium is replaced with complete growth medium. Cells are harvested after additional 16-20 hrs for Western blot or RT-PCR analysis.
Total RNA is isolated using RNeasy® 96 kit according to recommended protocol (Qiagen). Briefly, cells are washed with 200 ul PBS after removal of growth medium. Following washing, 100 μl buffer RLT is added, plate is shaken vigorously for about 20 seconds. To each well 100 μl 70% ethanol are added and mixed by pipetting up and down three times. Samples are then applied into the wells of the RNeasy 96 plate placed in the QIAvac top base of the QIAvac 96 manifold, which is attached to a vacuum source. Vacuum is applied for 30 seconds or until transfer is complete. To each well 80 μl of DNase I incubation mix (20 mM Tris-HCl, pH 8.4, 2 mM MgCl2, 50 mM KCl and 225 Units/ml DNase I from Invitrogen) is added and incubated at room temperature for 30 minutes. Buffer RW1 (1 ml/well) is added and the vacuum is applied for 30 seconds. Buffer RPE (1 ml/well) is added to each well and vacuum is applied for 30 seconds. Washing steps with buffer RW1 and RPE1 are repeated once more. The plate is then removed from the manifold and blotted dry on paper towels. The plate is placed back in the QIAvac manifold and the vacuum is applied for 10 minutes. To elute RNA 30 μl of RNase-free water is added directly onto the membrane of each well, incubated for 1 minutes and vacuum is applied for 30 seconds. In order to maximize the recovery of total RNA the elution step is repeated with additional 30 μl/well RNase-free water.
Quantitation of survivin and GAPDH mRNA levels is determined by real-time quantitative RT-PCR using the ABI PRISM® 7900 Sequence Detection System (Applied Biosystems). RT-PCR reactions are carried out by adding 15 ul of TaqMan One Step PCR Master Mix (Applied Biosystems, #4309169) reagents (containing 100 nM each of forward primer and reverse primer, and 200 nM probe) to 96-well plates with 10 μl total RNA. For human survivin, the forward PCR primer is: 5′[…]3′ (SEQ ID NO: 186), and the reverse primer is: 5′[…]3′ (SEQ ID NO: 187). The survivin TaqMan® probe used is 5′(FAM)[…]3′ (SEQ ID NO: 188) (Biosearch Technologies, Inc.). This primer-probe set, designed to SEQ ID No 14 was used for all experiments in Examples 15 to the end. For human GAPDH, TaqMan GAPDH Control Reagent Kit is used (Applied Biosystems, #402869). The percentage inhibition for each samples are calculated by comparing the survivin/GAPDH mRNA ratio for the sample to survivin/GAPDH mRNA ratio for the untreated control. The IC50 is derived from the non-linear regression analysis of the percentage inhibition data using GraphPad Prism software (GraphPad Software).
The constructs tested comprise the antisense strand in the 5′-3′ orientation, and the sense strand in the 5′ to 3′ orientation, In Table 15, “D” is dose response (mRNA levels) and “W” is Western blot. […]
Take “ISIS 353538_343868: dsRNA duplex: antisense 353538 (4'-thio), sense 343868 (unmodified) (antisense UUUGAAAAUGUUGAUCUCC; sense GGAGAUCAACAUUUUCAAA; antisense: all phosphodiester, sugars by position and methylation of C not given here; sense: RNA, phosphodiester; antisense has 4'-thioribose at some positions, positions stated inconsistently, further chemistry not fully specified)”: the IC50 was 0.16 nM. Still for that read-out and setting: the figure for “ISIS 353540_343868: dsRNA duplex: antisense 353540, sense 343868 (antisense UUUGAAAAUGUUGAUCUCC; sense GGAGAUCAACAUUUUCAAA; chemical modifications, chemistry not fully specified)” is 0.11 nM; for “ISIS 352507_352511: blunt-ended siRNA duplex: antisense 352507, sense 352511 (antisense mUrUmUrGmArAmArAmUrGmUrUmGrAmUrCmUrCmC; sense GGAGAUCAACAUUUUCAAA; sense: all phosphodiester, sugars by position and methylation of C not given here; further chemistry not fully specified)” it is 0.24 nM. Still for that read-out and setting: the figure for “ISIS 352506_352514: blunt-ended siRNA duplex: antisense 352506, sense 352514 (antisense mUrUrUrGrAmAmArArUmGrUrUrGrArUrCmUmCmC; sense GGAGAUCAACAUUUUCAAA; sense: sugars from the 5' end rererererererererer, all phosphodiester, methylation of C and T or U not given here)” is 0.12 nM. The same measure, in the same setting: next, “ISIS 352507_352514: blunt-ended siRNA duplex: antisense 352507, sense 352514 (antisense mUrUmUrGmArAmArAmUrGmUrUmGrAmUrCmUrCmC; sense GGAGAUCAACAUUUUCAAA; sense: sugars from the 5' end rererererererererer, all phosphodiester, methylation of C and T or U not given here)”: 0.21 nM. On to “ISIS 355710_343868: dsRNA duplex: antisense 355710, sense 343868 (antisense UUUGAAAAUGUUGAUCUCC; sense GGAGAUCAACAUUUUCAAA; chemical modifications, chemistry not fully specified)”, for which the IC50 stood at 0.1 nM. In the case of “ISIS 346284_346287: blunt-ended siRNA 19 PO-PS/PS: antisense 346284, sense 346287 (antisense rUrU*rUrG*rArA*rArA*rUrG*rUrU*rGrA*rUrC*rUrC*rC; sense rG*rG*rA*rG*rA*rU*rC*rA*rA*rC*rA*rU*rU*rU*rU*rC*rA*rA*rA)”, the IC50 was 3.24 nM.
